Laboratory results taken from patent US20230073368A1, “THERAPY OF RAS-DEPENDENT CANCERS” (Turun Yliopisto, priority 2020, published 2023).

Tested on: PANC-1 cells
Assay: Proliferation assay of SHANK3 silenced PANC-1 cells treated with ERK and MEK inhibitors
Type: cell-based, human
Conditions: dose-dependent, 7.8 nM-8 μM gradient
Description: Proliferation Assay of SHANK3 Silenced PANC-1 Cells Treated with ERK and MEK Inhibitors
Cells were seeded on a 96-well plate (2000-5000 cells/well) a day before transfection and silenced the next day when cell confluence was approximately 30%. Next day after silencing, medium was changed to full medium containing DMSO (control), Trametinib, Selumetinib (ADZ6244) or selective ERK1/2 inhibitor (SCH772984) in dose-dependent manner (concentration gradient: 0, 7.8 nM, 15.5 nM 31.3 nM 62.5 nM, 125 nM, 250 nM, 500 nM, 1 μM, 2 μM, 4 μM and 8 μM). Proliferation was measured using IncuCyte S3 as described above.

O=C(Nc1ccc2[nH]nc(-c3ccncc3)c2c1)[C@@H]1CCN(CC(=O)N2CCN(c3ccc(-c4ncccn4)cc3)CC2)C1 [SCH772984]
rescue of cell viability lost by SHANK3-silencing: abolished a loss of cell viability induced by SHANK3-silencing
